Measurements from patent publication US20260193268A1, “TRICYCLIC PI3Ka INHIBITOR, PREPARATION METHOD THEREFOR, AND PHARMACEUTICAL USE THEREOF” (WIGEN BIOMEDICINE TECHNOLOGY (SHANGHAI) CO., LTD., priority 2022, published 2026).
Where two headings read alike, the source gives them in different places.

Tests used:
[1] = system: HCC1954 cells (with PI3Kα H1047R mutation); test: In vitro inhibition of HCC1954 cell proliferation (CellTiter-Lumi); assay type: cell-based
Experimental: Assay for In Vitro Inhibition of HCC1954 Cell Proliferation by Compounds of the Present Disclosure
The growth of the cells was evaluated, and the IC50 for the inhibition of cell growth by the compounds was calculated.

[2] = system: MCF-7 cells (with PI3Kα E545K mutation); test: In vitro inhibition of MCF-7 cell proliferation (CellTiter-Lumi); assay type: cell-based
Experimental: Biological Example 3. Assay for In Vitro Inhibition of MCF-7 Cell Proliferation by Compounds of the Present Disclosure
MCF-7 cells (with PI3Kα E545K mutation) were seeded into a 384-well plate (Fisher 142762) at 2000 cells per well. The next day, serially diluted compounds were added, and 144 h after the addition, CellTiter-Lumi (Beyotime C0068XL) was added to measure the ATP content in the cells. The growth of the cells was evaluated, and the IC50 for the inhibition of cell growth by the compounds was calculated.

[3] = Homo sapiens, HCC1954, 144 h, HCC1954 cells, 144 h, CellTiter-Lumi, class symbols, read-out: Inhibitory activity against HCC1954 cells (IC50), class symbols
[4] = Homo sapiens, MCF7, 144 h, class symbols, read-out: Inhibitory activity against MCF-7 cells (IC50), class symbols
[5] = Homo sapiens, HCC1954, 144 h, HCC1954 cells, 144 h, CellTiter-Lumi, numeric values, read-out: Inhibitory activity against HCC1954 cells (IC50)
[6] = Homo sapiens, MCF7, 144 h, numeric values, read-out: Inhibitory activity against MCF-7 cells (IC50)

| SMILES | IC50 [1, 3] [nM] | IC50 [2, 4] [nM] | also measured |
| --- | --- | --- | --- |
| CN(C)C/C=C/C(=O)Nc1ccc(N2CC(N3CCN(c4ccc5c(c4)-c4nc(N6C(=O)OC[C@H]6C(F)F)cn4CCO5)CC3)C2)cn1 [Compound 148] | – | – | IC50 [1, 5]: 10 nM; IC50 [2, 6]: 0.2 nM |
| CC(C)(C)C=C(C#N)C(=O)Nc1ccc(N2CC(N3CCN(c4ccc5c(c4)-c4nc(N6C(=O)OC[C@H]6C(F)F)c(F)n4CCO5)CC3)C2)cc1 [Compound 321] | < 50 | < 50 | – |
| C=CC(=O)Nc1cnc(N2CC(N3CCN(c4ccc5c(c4)-c4nc(N6C(=O)OC[C@H]6C(F)F)cn4CCO5)CC3)C2)nc1 [Compound 133] | – | – | IC50 [1, 5]: 4.3 nM; IC50 [2, 6]: 0.4 nM |
| CC(C)(O)C=C(C#N)C(=O)Nc1ccc(N2CC(N3CCN(c4ccc5c(c4)-c4nc(N6C(=O)OC[C@H]6C(F)F)cn4CCO5)CC3)C2)cc1 [Compound 211] | < 50 | < 50 | – |
| CC(C)(C=C(C#N)C(=O)Nc1ccc(N2CC(N3CCN(c4ccc5c(c4)-c4nc(N6C(=O)OC[C@H]6C(F)F)cn4CCO5)CC3)C2)cc1)NCOP(=O)(OCOC(=O)C(C)(C)C)OCOC(=O)C(C)(C)C [Compound 333] | < 50 | < 50 | – |
| CC(C)(C=C(C#N)C(=O)Nc1ccc(N2CC(N3CCN(c4ccc5c(c4)-c4nc(N6C(=O)OC[C@H]6C(F)F)cn4CCO5)CC3)C2)nc1)N1CCC1 [Compound 247] | < 50 | < 50 | – |
| CN(C)C(C)(C)C=C(C#N)C(=O)Nc1ccc(N2CC(N3CCN(c4ccc5c(c4)-c4nc(N6C(=O)OC[C@H]6C(F)F)cn4CCO5)CC3)C2)cc1 [Compound 150] | – | – | IC50 [1, 5]: 121 nM; IC50 [2, 6]: 35 nM |
| C=CC(=O)N1CC[C@H](C(=O)NCC(=O)N2CCN(c3ccc4c(c3)-c3nc(N5C(=O)OC[C@H]5C(F)F)cn3CCO4)CC2)C1 [Compound 3] | – | – | IC50 [1, 5]: 282 nM; IC50 [2, 6]: 62 nM |
| CC(=O)N1CCN(C(C)(C)C=C(C#N)C(=O)Nc2ccc(N3CC(N4CCN(c5ccc6c(c5)-c5nc(N7C(=O)OC[C@H]7C(F)F)cn5CCO6)CC4)C3)cc2)CC1 [Compound 310] | < 50 | < 50 | – |
| N#CC(=CC1CC1)C(=O)Nc1ccc(N2CC(N3CCN(c4ccc5c(c4)-c4nc(N6C(=O)OC[C@H]6C(F)F)cn4CCO5)CC3)C2)nc1 [Compound 245] | < 50 | < 50 | – |
| C=CC(=O)Nc1ccc(N2CC(N3CCN(c4ccc5c(c4)-c4nc(N6C(=O)OC[C@H]6C(F)(F)F)cn4CCO5)CC3)C2)cc1 [Compound 277] | < 50 | < 50 | – |
| CCOP(=O)(OCC)OC(C)(C)C=C(C#N)C(=O)Nc1ccc(N2CC(N3CCN(c4ccc5c(c4)-c4nc(N6C(=O)OC[C@H]6C(F)F)cn4CCO5)CC3)C2)cc1 [Compound 342] | – | < 50 | IC50 ([1]; Homo sapiens, HCC1954, 144 h, read-out: Inhibitory activity against HCC1954 cells (IC50), class symbols): < 50 nM |
| C=CC(=O)Nc1ccc(N2CCC(CN3CCN(c4ccc5c(c4)-c4nc(N6C(=O)OC[C@H]6C(F)F)cn4CCO5)CC3)CC2)cc1 [Compound 12] | – | – | IC50 [1, 5]: 399 nM; IC50 [2, 6]: 49 nM |
| CC(C)(O)C=C(C#N)C(=O)Nc1ccc(N2CC(N3CCN(c4ccc5c(c4)-c4nc(N6C(=O)OC[C@H]6C(F)F)cn4CCO5)CC3)C2)nc1 [Compound 248] | < 50 | < 50 | – |
| CC(C)(C=C(C#N)C(=O)Nc1ccc(N2CC(N3CCN(c4ccc5c(c4)-c4nc(N6C(=O)OC[C@H]6C(F)F)cn4CCO5)CC3)C2)cc1)N1CC(C2COC2)C1 [Compound 314] | < 50 | < 50 | – |
| C=CC(=O)Nc1ccc(CN2C[C@@H]3CN(c4ccc5c(c4)-c4nc(N6C(=O)OC[C@H]6C(F)F)cn4CCO5)C[C@@H]3C2)cc1 [Compound 41] | – | – | IC50 [1, 5]: 191 nM; IC50 [2, 6]: 40 nM |
| CC(C)(C=C(C#N)C(=O)Nc1ccc(N2CC(N3CCN(c4ccc5c(c4)-c4nc(N6C(=O)OC[C@H]6C(F)F)cn4CCO5)CC3)C2)cc1)NC(=O)OC(C)(C)C [Compound 324A] | – | – | IC50 ([1]; HCC1954 cells, 144 h, CellTiter-Lumi, numeric values, read-out: Inhibitory activity against HCC1954 cells (IC50)): 0.1 nM; IC50 ([2]; 144 h, numeric values, read-out: Inhibitory activity against MCF-7 cells (IC50)): 0.1 nM |
| N#CC(=CC1(N)CC1)C(=O)Nc1cnc(N2CC(N3CCN(c4ccc5c(c4)-c4nc(N6C(=O)OC[C@H]6C(F)F)cn4CCO5)CC3)C2)nc1 [Compound 271] | < 50 | < 50 | – |
| CN(C1COC1)C(C)(C)C=C(C#N)C(=O)Nc1ccc(N2CC(N3CCN(c4ccc5c(c4)-c4nc(N6C(=O)OC[C@H]6C(F)F)cn4CCO5)CC3)C2)cc1 [Compound 274] | < 50 | < 50 | – |
| N#CC(=CC1CCCN1)C(=O)Nc1ccc(N2CC(N3CCN(c4ccc5c(c4)-c4nc(N6C(=O)OC[C@H]6C(F)F)cn4CCO5)CC3)C2)nc1 (stereo partly shown) [Compound 252] | < 50 | < 50 | – |
| COC(C)(C)C=C(C#N)C(=O)Nc1ccc(N2CC(N3CCN(c4ccc5c(c4)-c4nc(N6C(=O)OC[C@H]6C(F)F)cn4CCO5)CC3)C2)nc1 [Compound 249] | < 50 | < 50 | – |
| CC(C)C=C(C#N)C(=O)Nc1ccc(N2CC(N3CCN(c4ccc5c(c4)-c4nc(N6C(=O)OC[C@H]6C(F)F)cn4CCO5)CC3)C2)c(F)c1 [Compound 226] | < 50 | < 50 | – |
| C=CC(=O)Nc1ccc(CN2CCN(c3ccc4c(c3)-c3nc(N5C(=O)OC[C@H]5C(F)F)cn3CCO4)CC2)cc1 [Compound 44] | – | – | IC50 [1, 5]: 644 nM; IC50 [2, 6]: 151 nM |
| CC(C)=CC(=O)CCC(=O)N1CCC(C#Cc2ccc3c(c2)-c2nc(N4C(=O)OC[C@H]4C(F)F)cn2CCO3)CC1 [Compound 191] | 50 to 100 | < 50 | – |
| C=CC(=O)Nc1ccc(N2CC(N3CCN(c4ccc5c(c4)-c4nc(N6C(=O)OC[C@H]6C(F)F)cn4CCO5)CC3)C2)cc1C(F)(F)F [Compound 142] | – | – | IC50 [1, 5]: 8.3 nM; IC50 [2, 6]: 0.5 nM |
| C=CC(=O)N1CCN(CCCC(=O)N2CCN(c3ccc4c(c3)-c3nc(N5C(=O)OC[C@H]5C(F)F)cn3CCO4)CC2)CC1 [Compound 15] | – | – | IC50 [1, 5]: 128 nM; IC50 [2, 6]: 14 nM |
| C#CC(=O)Nc1ccc(N2CC(N3CCN(c4ccc5c(c4)-c4nc(N6C(=O)OC[C@H]6C(F)F)cn4CCO5)CC3)C2)cc1 [Compound 152] | – | – | IC50 [1, 5]: 49 nM; IC50 [2, 6]: 9.7 nM |
| CC(C)(C=C(C#N)C(=O)Nc1ccc(N2CC(N3CCN(c4ccc5c(c4)-c4nc(N6C(=O)OC[C@H]6C(F)F)cn4CCO5)CC3)C2)c(F)c1)N1CCOCC1 [Compound 222] | < 50 | < 50 | – |

Further lines, with some results ahead:

| IC50 [1, 3] [nM] | IC50 [2, 4] [nM] | SMILES | also measured |
| --- | --- | --- | --- |
| < 50 | < 50 | C=CC(=O)Nc1ccc(N2CC(N3CCN(c4ccc5c(c4)-c4nc(-c6nc(C)nn6C(C)C)cn4CCO5)CC3)C2)c(F)c1 [Compound 376] | – |
| < 50 | < 50 | CNC1(C=C(C#N)C(=O)Nc2ccc(N3CC(N4CCN(c5ccc6c(c5)-c5nc(N7C(=O)OC[C@H]7C(F)F)cn5CCO6)CC4)C3)cc2)CCC1 [Compound 392] | – |
| < 50 | < 50 | CC(C)(C=C(C#N)C(=O)Nc1ccc(N2CC(N3CCN(c4ccc5c(c4)-c4nc(N6C(=O)OC[C@H]6C(F)F)cn4CCO5)CC3)C2)cc1)NCC1COC1 [Compound 381] | – |
| < 50 | < 50 | CC(C)OC(=O)OCOP(=O)(OCOC(=O)OC(C)C)OCOC(C)(C)C=C(C#N)C(=O)Nc1ccc(N2CC(N3CCN(c4ccc5c(c4)-c4nc(N6C(=O)OC[C@H]6C(F)F)cn4CCO5)CC3)C2)cc1 [Compound 344] | – |
| < 50 | < 50 | N#CC(=CC1CCCC1)C(=O)Nc1ccc(N2CC(N3CCN(c4ccc5c(c4)-c4nc(N6C(=O)OC[C@H]6C(F)F)cn4CCO5)CC3)C2)cc1 [Compound 393] | – |
| < 50 | < 50 | Cc1nc(-c2cn3c(n2)-c2cc(N4CCN(C5CN(c6ccc(NC(=O)C(C#N)=CC(C)(C)C)cc6F)C5)CC4)ccc2OCC3)n(C(C)C)n1 [Compound 367] | – |
| < 50 | < 50 | CN(C1COC1)C(C)(C)C=C(C#N)C(=O)Nc1ccc(N2CC(N3CCN(c4ccc5c(c4)-c4nc(N6C(=O)OC[C@H]6C(F)F)cn4CCO5)CC3)C2)c(Cl)c1 [Compound 352] | – |
| < 50 | < 50 | CN(C)C/C=C/C(=O)Nc1ccc(N2CC(N3CCN(c4ccc5c(c4)-c4nc(N6C(=O)OC[C@H]6C(F)F)cn4CCO5)CC3)C2)c(Cl)c1 [Compound 356] | – |
| < 50 | < 50 | CNC(C)(C)C=C(C#N)C(=O)Nc1ccc(N2CC(N3CCN(c4ccc5c(c4)-c4nc(N6C(=O)OC[C@H]6C(F)F)cn4CCO5)CC3)C2)cc1Cl [Compound 359] | – |
| < 50 | < 50 | CC(C)(N)C=C(C#N)C(=O)Nc1ccc(N2CC(N3CCN(c4ccc5c(c4)-c4nc(N6C(=O)OC[C@H]6C(F)F)cn4CCO5)CC3)C2)c(Cl)c1 [Compound 351] | – |
| < 50 | < 50 | CC(C)(C=C(C#N)C(=O)Nc1ccc(N2CC(N3CCN(c4ccc5c(c4)-c4nc(N6C(=O)OC[C@H]6C(F)F)cn4CCO5)CC3)C2)cc1)NCCO [Compound 383] | – |
| < 50 | < 50 | CC(C)(N)C=C(C#N)C(=O)Nc1ccc(N2CC(N3CCN(c4ccc5c(c4)-c4nc(N6C(=O)OC[C@H]6C(F)F)cn4CCO5)CC3)C2)cc1Cl [Compound 360] | – |
| < 50 | < 50 | CC(C)n1ncnc1-c1cn2c(n1)-c1cc(N3CCN(C4CN(c5ccc(NC(=O)C(C#N)=CC(C)(C)C)cn5)C4)CC3)ccc1OCC2 [Compound 371] | – |
